Data taken from patent US20110091377A1, “BIOMARKERS FOR MELANOMA” (THE JOHNS HOPKINS UNIVERSITY, priority 2007, published 2011).

Assays:
Format in all cases: cell-based, human
[1] = tested on: WM793 (BRAF V600E melanoma); assay: 3H-thymidine cell proliferation assay, WM793; conditions: BRAF mutant melanoma (WM793), 250 nM siRNA
Description: (§1) The MMP-1 siRNA (5′-gagcaagatgtggacttag-3′) and scrambled siRNA (5′-gattcaggtgtagaacgag-3′) sequences were designed using Dharmacon siDESIGN Center. Transfection of the siRNAs was performed using 2 μL of DharmaFECT 1 transfection reagent (Dharmacon) and 100 nM of MMP-1 siRNA and scrambled siRNA for the WM852 cell line and 250 nM for the WM793 cell line. Cells were collected and pelleted 24 hours after transfection for RNA extraction using the RNeasy Mini Kit ([…]), cDNA production by using SUPERSCRIPT First-Strand Synthesis System for RT-PCR according to manufacturer's instructions (Invitrogen), and semi-quantitative duplex PCR to confirm MMP-1 knockdown.
(§2) WM852 and WM793 cell lines were seeded at 15,000 cells per well into a 96-well tissue culture plate (Becton Dickinson) 24 hours after siRNA transfection. Twenty-two hours later, 10 μL of 0.1 μCi/μL ^3H-thymidine (Perkin Elmer) was added to each well. After 4 hours, the cells were washed with PBS and 50 μL of trypsin was added into each well for 10 minutes. The trypsinized cells were harvested to a filtermat using the Perkin Elmer FilterMate cell harvester (Perkin Elmer). The dried filtermat was sealed in a sample bag with 4 mL of scintillation fluid and then read on a Perkin Elmer 1450 Microbeta Liquid Scintillator (Perkin Elmer).

[2] = tested on: MMP-1; assay: MMP-1 ELISA of cell culture media after siRNA gene silencing
Description: Cell culture media with no serum was added to the cell lines. After 72 hours, the media was collected and the protein concentration was determined using the Bio-Rad Protein Assay reagent (Bio-Rad Laboratories). The amount of human MMP-1 pro and active forms was determined using the RAYBIO Human MMP-1 ELISA kit (RayBiotech, Inc.) following the manufacturer's instructions. MMP-1 activity in the collected media was measured using the SensoLyte Plus™ 520 MMP-1 Assay Kit (AnaSpec) following the manufacturer's protocol including the step to add 4-aminophenylmecuric acetate (APMA) to the samples in order to activate all the pro-MMP-1.

[3] = tested on: WM852 (wildtype BRAF melanoma); assay: 3H-thymidine cell proliferation assay, WM852; conditions: 100 nM siRNA
Description: as §1, §2

[4] = tested on: MMP-1; assay: Semi-quantitative duplex RT-PCR of MMP-1 after siRNA gene silencing; conditions: 24 hours after transfection
Description: as §1
Semi-quantitative duplex RT-PCR was performed by a MJ Research Programmable Thermal Controller (PTC-100, Inc.) and the amplified products were separated on an agarose gel. The duplex PCR utilized 20 by oligonucleotides to amplify regions of ˜350 by from MMP-1. Optimization experiments were conducted to determine a favorable primer concentration for the GAPDH internal control. The following primer oligonucleotides were used: MMP-1 forward (5′-[…]-3′), MMP-1 reverse (5′-[…]-3′), GAPDH forward (5′-[…]-3′), and GAPDH reverse (5′-[…]-3′). The PCR was carried out in a total volume of 25 uL, containing 2.5 uL of 10×PCR Buffer (containing 15 mM MgC12), 0.2 mM dNTPs, and 0.3 ul AmpliTaq Gold DNA Polymerase (Applied Biosystems). […]

## 5′-gagcaagatgtggacttag-3′ [MMP-1 siRNA]
[1]
  cell growth inhibition versus control siRNA: 80%
[2]; WM793, BRAF V600E
  secreted MMP-1 protein levels from conditioned media: efficiently downregulated
[2]; WM852, wildtype BRAF
  secreted MMP-1 protein levels from conditioned media: efficiently downregulated
[3]
  cell growth inhibition versus control siRNA: 17%
[4]; WM793, BRAF V600E, 250 nM siRNA
  MMP-1 transcript levels: efficiently downregulated
[4]; WM852, wildtype BRAF, 100 nM siRNA
  MMP-1 transcript levels: efficiently downregulated
